Measured values taken from patent US5480983A, “Adenosine derivatives, preparation methods and pharmaceutical compositions containing them” (Laboratoires UPSA, priority 1992, dated 1996).

How the values were obtained:
platelet aggregation = conditions: as described in Journal of Medicinal Chemistry; cited from earlier work
[1] = target: T1, rat central A2 adenosinergic receptors (Rattus norvegicus, UniProt P30543); assay: Binding to adenosine A2 receptors ([3H] NECA displacement); conditions: [3H] NECA 4 nM, n=3; for inhibition at 10 µM: 1E-5M, read-out: % displacement of the labeled ligand, A2, 1E-5M; for inhibition at 0.1 µM: 1E-7M, read-out: % displacement of the labeled ligand, A2, 1E-7M
T1 construct: the striatum is removed from each of them (Bruns et al., 1986); from tissue; host or cells: rat striatum, homogenate (membrane preparation)
T1 sequence (P30543 whole entry): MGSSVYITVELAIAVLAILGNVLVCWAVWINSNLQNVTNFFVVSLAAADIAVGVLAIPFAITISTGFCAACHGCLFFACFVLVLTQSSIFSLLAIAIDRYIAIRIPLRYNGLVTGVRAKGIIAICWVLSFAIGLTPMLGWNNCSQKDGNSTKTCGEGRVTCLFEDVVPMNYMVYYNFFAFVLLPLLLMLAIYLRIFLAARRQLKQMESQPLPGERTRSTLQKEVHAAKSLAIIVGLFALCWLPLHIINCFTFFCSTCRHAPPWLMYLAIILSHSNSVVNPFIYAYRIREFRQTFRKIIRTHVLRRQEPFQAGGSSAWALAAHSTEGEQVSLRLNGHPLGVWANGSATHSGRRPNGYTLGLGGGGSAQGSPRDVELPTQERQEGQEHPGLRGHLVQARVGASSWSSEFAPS
Protocol: (§1) The affinity of the products of the Examples for the rat central A1 and A2 adenosinergic receptors is determined by the competitive technique using a radioactive ligand specifically bound either to the A1 receptors ([^3 H] PIA) or to the A2 receptors ([^3 H] NECA).
Method of studying the A2 receptors Membrane preparation
After decapitation of the animal, the brain is quickly removed and washed in cold isotonic solution. The two hemispheres are separated and the striatum is removed from each of them (Bruns et al., 1986), weighed and introduced into a polyallomer tube containing 10 volumes of cold homogenization buffer. The tissue is homogenized with an Ultra-Turrax for 30 seconds (3 times 10 seconds with 10-second intervals, 70% of the maximum speed). The ground material is centrifuged at 50,000 g (≈20,500 rpm) for 10 minutes at 4° C.
The residue obtained is resuspended in 10 volumes of homogenization buffer using a Vortex and homogenized with the Ultra-Turrax (5 to 10 seconds, 70% of the maximum speed).
Adenosine deaminase is then added at a rate of 1 U/ml, i.e. 1 μl/ml of homogenate, using a 10 μl Hamilton syringe. The homogenate treated in this way is shaken at room temperature for 30 minutes.
When the incubation is complete, the homogenate is centrifuged at 50,000 g (≈20,500 rpm) for 10 minutes at 4° C.
The residue is taken up with 5 volumes of cold homogenization buffer and passed through the Ultra-Turrax (2 times 10 seconds with a 10-second interval, 70% of the maximum speed) and the homogenate prepared in this way is finally frozen at -70° C. Competitive test
After the homogenate has been thawed at room temperature, 15 volumes of incubation buffer are added. The homogenate is shaken on a Vortex, passed through a Potter mill (6 to-and-fro movements, speed 6), diluted to 1/10 in incubation buffer and finally placed in a water bath thermostated at 4° C., with shaking, until the end of the experiment.
(§2) 50 μl of [^3 H] NECA at 160 nM, i.e. 4 nM in the final reaction medium allowing for the 1/40 dilution, and 50 μl of the product of the Example at the concentrations considered (10^-5 M and 10^-7 M) are introduced into the reaction tubes. The reaction is initiated by the addition of 1 ml of homogenate and 900 μl of incubation buffer. The procedure is similar for all the compounds studied.
The tubes are shaken and incubated in a water bath at 25° C. for 60 minutes. When the incubation is complete, the contents of the tubes are filtered on Whatman GF/B paper. Each tube is washed twice with 2 ml of rinsing buffer and then the filters themselves are rinsed with 3 ml of this same buffer before being transferred to counting flasks.
10 ml of liquid scintillator (Ready Solv HP/b, Beckman) are added to all the flasks. These are shaken and stored in a refrigerator overnight. The radioactivity is determined in a liquid scintillation counter.
(§3) 3 tests are performed for each concentration studied. The non-specific binding of the [^3 H] NECA is determined by measuring the amount of radioactivity retained on the filter in the presence of 5 μM N-ethylcarboxamidoadenosine (NECA). The value of the non-specific binding is systematically subtracted from that of the tests.
(§4) The results are expressed for each product in the form of the percentage displacement (n=3) of the labeled radioligand at concentrations of 10^-5 M and 10^-7 M.

[2] = target: T2, rat central A1 adenosinergic receptors (Rattus norvegicus, UniProt P25099); assay: Binding to adenosine A1 receptors ([3H] PIA displacement); conditions: [3H] PIA 2.5 nM, n=3; for inhibition at 10 µM: 1E-5M, read-out: % displacement of the labeled ligand, A1, 1E-5M; for inhibition at 0.1 µM: 1E-7M, read-out: % displacement of the labeled ligand, A1, 1E-7M
T2 construct: After the animal has been sacrificed by decapitation, the brain is quickly removed and washed in cold isotonic solution; from tissue; host or cells: rat brain, membrane preparation from the two hemispheres
T2 sequence (P25099 1-326): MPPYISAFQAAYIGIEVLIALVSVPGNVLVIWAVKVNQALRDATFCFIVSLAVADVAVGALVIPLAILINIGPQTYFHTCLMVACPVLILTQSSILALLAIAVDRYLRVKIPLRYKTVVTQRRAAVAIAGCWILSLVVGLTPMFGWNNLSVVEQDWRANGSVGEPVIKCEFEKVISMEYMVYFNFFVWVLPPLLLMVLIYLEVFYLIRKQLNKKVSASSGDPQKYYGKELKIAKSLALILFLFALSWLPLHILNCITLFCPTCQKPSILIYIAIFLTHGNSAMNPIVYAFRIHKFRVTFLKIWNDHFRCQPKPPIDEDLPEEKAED
Protocol: as §1
After the animal has been sacrificed by decapitation, the brain is quickly removed and washed in cold isotonic solution. The two hemispheres are separated and weighed and each of them is introduced into a polyallomer tube containing 25 volumes of cold homogenization buffer. Homogenization is effected using an Ultra-Turrax for 30 seconds (3 times 10 seconds with 10-second intervals, 70% of the maximum speed). The ground material obtained is centrifuged at 1000 g (≈3000 rpm) for 10 minutes at 4° C.
The supernatant is centrifuged again at 48,000 g (≈20,000 rpm) for 20 minutes at 4° C.
When this step is complete, the residue is taken up with 4 volumes of homogenization buffer, resuspended using a Vortex and homogenized with the Ultra-Turrax. Adenosine deaminase is then added at a rate of 1 U/ml, i.e. 1 μl/ml of homogenate, using a 10 μl Hamilton syringe.
After this treatment, the homogenate is shaken for 30 minutes at room temperature and then centrifuged at […] (≈20,000 rpm) for 30 minutes at 4° C.
The residue obtained is resuspended in 10 volumes of homogenization buffer and passed through the Ultra-Turrax for 20 seconds (2 times 10 seconds with a 10-second interval, 70% of the maximum speed).
The homogenate prepared in this way is used for the competitive tests. It is kept at 4° C. if the studies take place the same day, or stored at -20° C. in the form of 10 ml aliquots.
After the homogenate has been thawed at room temperature, it is passed through a Potter mill (6 manual to-and-fro movements, speed 6), diluted to 2/5 in incubation buffer and placed in a water bath thermostated at 4° C., with shaking, until the end of the experiment.
as §2, with “H] PIA” for “H] NECA”, “at 100” for “at 160”, “i.e. 2.5” for “i.e. 4”, “considered ([…]” for “considered (10^-5”, “is identical” for “is similar”, “the […]” for “the compounds”
The tubes are shaken and incubated in a water bath at 20° C. for 30 minutes. When the incubation is complete, the contents of the tubes are filtered on Whatman GF/B paper. Each tube is washed twice with 2 ml of rinsing buffer and then the filters themselves are rinsed with 3 ml of this same buffer.
The filters are then transferred to counting flasks and 10 ml of liquid scintillator (Ready Solv HP/b, Beckman) are added.
After they have been shaken, the flasks are stored in a refrigerator overnight and the radio-activity is then determined in a liquid scintillation counter.
as §3, with “PIA” for “NECA”, “assessed” for “determined”, “10^-5 M phenylisopropyladenosine (PIA).” for “5 μM N-ethylcarboxamidoadenosine (NECA).”
as §4

[3] = Phenylbenzoquinone test (analgesic activity); type: in vivo; conditions: Mus musculus, 1 h; mice; oral, one hour before phenylbenzoquinone i.p.; 5 minutes observation; read-out: Phenylbenzoquinone test 50% inhibitory dose
Protocol: 2. Phenylbenzoquinone test
The intraperitoneal injection of phenylbenzoquinone causes twisting and stretching movements in mice. Analgesics prevent or reduce this syndrome, which can be considered as the exteriorization of diffuse abdominal pain.
A 0.02% solution of phenylbenzoquinone in water is administered in a volume of 1 ml/100 g.
The products of the Examples are administered orally one hour before the injection of phenylbenzoquinone.
The stretching and twisting movements are counted for each mouse over an observation period of 5 minutes.

[4] = as specified in Biochemical Pharmacology; cited from earlier work

Row | inhibition at 10 µM [1] [%] | inhibition at 0.1 µM [1] [%] | inhibition at 10 µM [2] [%] | inhibition at 0.1 µM [2] [%] | Structure (SMILES) | platelet aggregation inhibiting activity (platelet aggregation) | ED50 [3] [mg/kg] | antilipolytic activity [4]
1 |  |  |  |  | OC[C@H]1O[C@@H](n2cnc3c(NCCc4c[nH]c5ccccc45)ncnc32)[C@H](O)[C@@H]1O [derivative A, N-6-[2-(indol-3-yl)ethyl]adenosine] | platelet aggregation inhibiting activity |  | 
2 | 60 | 7 | 56 | 5 | Cc1ccc(C)c(Cn2c(C)c(CCNc3ncnc4c3ncn4[C@@H]3O[C@H](C(=O)NC4CC4)[C@@H](O)[C@H]3O)c3ccccc32)c1 [Example 87, β-D-Ribofuranuronamido-N-cyclopropyl-1-deoxy-1-[6-[[2-[1-(2,5-dimethylbenzyl)-2-methylindol-3-yl]ethyl]amino]-9H-purin-9-yl]] |  | 1.2 | 
3 |  |  |  |  | COc1ccc2[nH]cc(CCNc3ncnc4c3ncn4[C@@H]3O[C@H](CO)[C@@H](O)[C@H]3O)c2c1 [derivative B] |  |  | antilipolytic activity
4 | 89 | 21 | 97 | 37 | Cc1ccc(Cn2cc(CCNc3ncnc4c3ncn4[C@@H]3O[C@H](C(=O)NC4CC4)[C@@H](O)[C@H]3O)c3ccccc32)cc1 [Example 66, β-D-Ribofuranuronamido-N-cyclopropyl-1-deoxy-1-[6-[[2-[1-(4-methylbenzyl)indol-3-yl]ethyl]amino]-9H-purin-9-yl]] |  | 3 | 
5 | 96 | 44 | 99 | 91 | O=C(NC1CC1)[C@H]1O[C@@H](n2cnc3c(NCCc4cn(CCN5CCCCC5)c5ccccc45)ncnc32)[C@H](O)[C@@H]1O [Example 71 (citrate), β-D-ribofuranuronamido-N-cyclopropyl-1-deoxy-1-[6-[[2-[1-(2-N-piperidinoethyl)indol-3-yl]ethyl]amino]-9H-purin-9-yl]citrate] |  | 7.3 | 
6 | 91 | 14 | 87 | 4 | CC(C)n1cc(CCNc2ncnc3c2ncn3[C@@H]2O[C@H](C(=O)NC3CC3)[C@@H](O)[C@H]2O)c2ccccc21 [Example 65, β-D-Ribofuranuronamido-N-cyclopropyl-1-deoxy-1-[6-[[2-[1-isopropylindol-3-yl]-ethyl]amino]-9H-purin-9-yl]] |  | 0.3 | 
7 | 71 | 3 | 100 | 50 | Cc1ccc(C)c(Cn2cc(CCNc3ncnc4c3ncn4[C@@H]3O[C@H](C(=O)NC4CC4)[C@@H](O)[C@H]3O)c3cc(C)ccc32)c1 [Example 85, β-D-Ribofuranuronamido-N-cyclopropyl-1-deoxy-1-[6-[[2-[1-(2,5-dimethylbenzyl)-5-methylindol-3-yl]ethyl]amino]-9H-purin-9-yl]] |  | 0.9 | 
8 | 84 | 9 | 96 | 21 | Cc1ccc(C)c(Cn2cc(CC(C)Nc3ncnc4c3ncn4[C@@H]3O[C@H](C(=O)NC4CC4)[C@@H](O)[C@H]3O)c3ccccc32)c1 (stereo partly drawn) [Example 92, β-D-Ribofuranuronamido-N-cyclopropyl-1-deoxy-1-[6-[[1-[1-(2,5-dimethylbenzyl)indol-3-yl]propan-2-yl]amino]-9H-purin-9-yl]] |  | 3.6 | 
9 | 91 | 17 | 100 | 16 | COc1ccc2c(c1)c(CCNc1ncnc3c1ncn3[C@@H]1O[C@H](C(=O)NC3CC3)[C@@H](O)[C@H]1O)cn2Cc1cc(C)ccc1C [Example 86, β-D-Ribofuranuronamido-N-cyclopropyl-1-deoxy-1-[6-[[2-[1-(2,5-dimethylbenzyl)-5-methoxyindol-3-yl]ethyl]amino]-9H-purin-9-yl]] |  | ~60 | 
